We go through one substance from patent US9018188B2, “MicroRNA inhibitors” (Ottawa Hospital Research Institute, priority 2011, dated 2015).

Common to all, as to format: in vivo, mouse
Assay [1] in a line: Body weight and fat depot weights after ASO treatment during TA muscle regeneration. Here is the method: Treated and control C57BL/6 male mice were raised on either RD or HFD in individual cages at 22° C. (n=5 per treatment per diet group). In both diet groups, miR-133 ASO treated mice were obviously leaner than the control mice at 4-month after treatment (FIG. 6A).
To induce brown adipocytes in vivo, 10 mg/mL Cardiotoxin solution (50 μl) was intramuscularly injected into TA muscles of 10-week old Pax7-CreER/R26R-tdTomato mice (FIG. 4) or C57BL/6 mice (FIG. 5 and FIG. 6). Alternatively, frozen injury was performed by applying liquid nitrogen cooled tweezers tips directly onto the anterior sides of TA muscles. After 3 days, 20 μg of miR-133 antagomiR or control antagomiR in saline (50 μl) was intramuscularly injected into the same injured TA muscles (on right hindlimbs). To test efficacy of miR-133 ASO in intact muscles, saline, instead of Cardiotoxin, was injected to TA muscles before miR-133 ASO administration (FIGS. 4A, 4B). miR-133 antagomiR and scramble antagomiR were designed as previously described (Krutzfeldt et al., 2005).

Assay [2] deals with Ucp1. In words: UCP1 immunoblot in inguinal and epididymal white adipose tissues. On the procedure: Normalized UCP1 levels were calculated based on the densitometry analysis of the UCP1 immunoblot and the α-Tubulin immunoblot. The interscapular brown adipose tissue (iBAT) were included as a control. Asterisk denotes the loading of the iBAT lanes on the UCP1 immunoblot was 1/100 of other lanes to avoid overloading. (B) Immunohistochemistry (IHC) of UCP1 protein reveal miR-133 antagonism induced beige adipocytes within inguinal and epididymal white adipose tissues. […] Error bars: S.E.M., asterisk: significant pair-wise comparison by t-test, *: p≦0.05, **: p≦0.01, ***: p≦0.001.
The following antibodies and dilutions were used: anti-Prdm16 antibody (generated in Dr. Patrick Seale's laboratory), 1:5,000 dilution; anti-Perilipin A antibody (Vala Sciences), 1:5,000 dilution; anti-Ucp1 antibody (Ab10983, Abeam), 1:1,000 dilution (FIGS. 4B, 5A, 7A); anti-Ucp1 antibody (Calbiochem), 1:1,000 dilution (FIG. 8C); anti-Ucp3 antibody (Ab3477, Abeam), 1:1,000 dilution; anti-Pgc1α antibody (Abeam), 1:1,000 dilution; anti-pan myosin heavy chain (MyHC) antibody (Developmental Studies Hybridoma Bank), 1:500; anti-DsRed (tdTomato) antibody (Ablab), 1:500; anti-α-Tubulin antibody (Sigma-Aldrich), 1:10,000 dilution.
(In general: In western blotting, separated proteins are transferred to a membrane and probed.)

In assay [3] the test system is TA muscles. In words: [18F]-FDG PET imaging of treated TA muscles. The note with it: after CL316,243-stimulated sympathetic activation; normalized to contralateral TA muscles; 2 months after treatment. From the text: Metabolically active BAT has been identified in adult human by [^18F]-fluorodeoxyglucose positron emission tomography ([^18F]-FDG PET), due to dramatic glucose uptake by this tissue after sympathetic activation (Nedergaard et al., 2007). To visualize active brown adipose tissue within muscle, Applicant performed [^18F]-FDG PET imaging on control- or miR-133 ASO treated mice (n=5 for 133 ASO treated mice, n=4 for control treated muscle; 2 months after treatment) after acute sympathetic activation by selective β3-adrenergic receptor agonist, CL316,243 (FIG. 5E). Applicant observed a dramatic increase of FDG uptake in miR-133 ASO treated TA muscles compared to contralateral TA muscles or TA muscles within control ASO treated mice. To rule out possible direct and indirect effects of CL316,243 on glucose/FDG uptake by skeletal muscle cells, Applicant normalized FDG activities derived from ROIs of treated TA muscles to those of contralateral TA muscles (FIG. 5F). […] Such a drastic increase was not observed without the sympathetic activation preceding anesthesia (baseline).
Mouse PET imaging was performed with an Inveon PET scanner (Siemens Preclinical Solutions, Knoxyille, Tenn., USA). Control- or miR-133 ASO treated C57BL/6 male mice fed with regular diet were anesthetized under 2% isoflurane. […]

Assay [4] in a line: Indirect calorimetry, physical activity and food intake. From the text: To assess whether miR-133 ASO treatment leads to increased whole-body energy expenditure, Applicant carried out indirect calorimetry studies at 2-3 months after ASO treatment on control- and miR-133 ASO treated mice (C57BL/6, male, individually caged, n=5 per treatment group per diet group; FIGS. 6C & 7B). […] Intriguingly, this amount of energy expenditure is coincident with the increase of mitochondrial respirometry-measured energy expenditure in miR-133 ASO treated TA muscles after adjustment with TA muscle mass (FIG. 7A; 0.3 cal·hour^−1·le^−1×75 mg=0.0225 kcal·hour^−1).
This discrepancy may be related to the abnormally low respiratory exchange ratio (˜0.76) in the control mice fed with HFD (FIG. 7D), which indicates an increased proportion of lipid oxidation in the control mice. […] In addition, miR-133 ASO treatment also led to much improved glucose tolerance in both diet groups (FIGS. 6E & 7F).
Whole-body O2 consumption and CO2 production was measured using an open circuit four-chamber indirect calorimetry system with automatic temperature and light controls (Columbus Instruments). Physical activities during indirect calorimetry was measured using infrared laser beam sets. Mice had access ad libitum to food and water in respiration chambers. Data were recorded for a 24 hour period with light between 06:00-18:00.

With “*mA*mUmAmGmCmUmGmGmUmUmGmAmAmGmGmGmGmAmC*mC*mA*mA*mAChl [miR-133 ASO]”, in assay [1] (4-month period after ASO administration, RD or HFD, C57BL/6 male), the “gain in body weight” value is “reduced gain in body weight”. In addition, in assay [1] (mouse, in vivo), the “igWAT and epiWAT weights” value is listed as “significant reduction”; the “mass of iBAT depots and treated TA muscles” value is on record as “unaffected”. The “effect on UCP1 in white adipose tissues” value in assay [2] (C57BL/6 mice fed with a high fat diet (HFD)) was “not present”. The “UCP1 in inguinal and epididymal white adipose tissues” value in assay [2] (C57BL/6 mice fed with a regular diet (RD), CTX) is “increase”. Moreover, in assay [3], the “increase of glucose/FDG uptake compared to control” value worked out at 1.3 fold. Further, in assay [4] (HFD, dark cycle), the “energy expenditure or physical activity compared to control mice” value is “No significant increase”. Also, in assay [4] (HFD, light cycle), the physical activities entry is “without difference” and the total energy expenditure result is “significantly increased”. Moreover, in assay [4] (RD, dark cycle), the energy expenditure entry is listed as “conspicuously high” and the physical activities result was “increased”. The physical activities result in assay [4] (RD, light cycle) was “without change”. In assay [4] (RD, light cycle, 2-3 months after treatment), the total energy expenditure entry is listed as “significant increase”. In assay [4] (both diet groups), the “24-hour food intake versus control mice” value is “comparable”.
